The subject of test [1] is B16 target cells (NK1.1+CD3− NK effector cells). As to the kind of experiment: NK cell cytotoxicity assay against melanoma cells. To be noted: WP1193 2 μM, IFN-α 20 ng/ml, 48 h, control 8.8. It is filed as cell-based, mice. The protocol:
(§1) Splenocytes were prepared as described above. NK1.1+CD3− NK effector cells or CD3+CD8+ T effector cells were sorted from splenocytes on a FACSAria Cell Sorter (BD Biosciences) with FITC-conjugated anti-mouse NK1.1 (eBioscience), PE-conjugated anti-CD3, and allophycocyanin (APC)-conjugated anti-CD8 antibodies (Miltenyi Biotec, Auburn, Calif.). B16 target cells were prepared as described above. The ratio of NK1.1+CD3− NK effector cells or CD8+ T effector cells to B16 target cells was 10:1 and 5:1, respectively. In the presence of NK1.1+CD3− NK cells or CD8+ T cells, treatment groups consisted of B16 target cells alone; B16 cells with 2 μM of WP1193; B16 cells with 20 ng/ml of IFN-α; B16 cells with 2 µM of WP1193 and 20 ng/ml of IFN-α. After 48 hours of incubation, the CFSE-labeled B16 melanoma cells were removed from the plates with trypsin and analyzed by FACS. Then, B16 cells were stained with PI (BD Biosciences) to distinguish viable cells from nonviable cells. B16 cells that were stained with CFSE and PI were considered nonviable. Flow cytometric acquisition of the B16 target cells was performed with a FACSCalibur flow cytometer (BD Biosciences), and data analysis was performed using FlowJo software (TreeStar). […]

Test [2] has as its system B16 target cells (CD3+CD8+ T effector cells). As to the kind of experiment: CD8+ T cell cytotoxicity assay against melanoma cells. It is filed as cell-based, mice. Conditions: WP1193 2 μM, IFN-α 20 ng/ml, 48 h, control 10.8. The protocol:
as §1

Test [3] concerns serum cytokines. The test can be described thus: Serum cytokine levels (Bio-Plex). In kind it is in vivo, C57BL/6J mice. Conditions: for IFN-gamma Concentration: control 1.5; for IL-1B Concentration: control 40.1; for TNF alpha Concentration: control 60.5. As to the method:
Determination of serum cytokine levels. Groups of non-tumor bearing 4- to 6-week-old female mice were treated with either IFN-α or “empty” plasmid control, WP1193, or IFN-α in combination with WP1193 as described in FIG. 13. Blood was collected through a tail vein from mice 9 and 16 days after the first WP1193 administration. […] The assay was run according to the manufacturer's instruction (Bio-Rad) by the Immunology Core Service at MD Anderson Cancer Center (Houston, Tex.).
This experiment was reproduced twice in its entirety with identical findings.

Test [4] has as its system NK1.1+ NK cells from splenocytes. The test can be described thus: NK cell activating receptors (flow cytometry). It is filed as cell-based, mice. To be noted: WP1193 2 μM, IFN-α 20 ng/ml, 24 hours (FIGS. 6C and 6D). The protocol:
Spleens from 4- to 6-week-old female mice were harvested and disassociated into a single-cell suspension as described above. Splenocytes were seeded at a density of 4×10^6 cells/well in 24-well culture plates and cultured with the RPMI 1640 medium in absence or presence of WP1193 (2 μM) and/or INF-α (20 ng/ml) for 24 hours. Afterwards, the cells were harvested and washed twice in PBS with 5% FCS, resuspended in staining buffer and labeled with FITC- or PE-conjugated anti-mouse NK1.1 (eBioscience, San Diego, Calif.) to identify the NK population. […] Following incubation, the cells were washed twice with FACS buffer and then analyzed with a BD FACSCalibur with gates set for viable splenocytes.
Because we observed NK and CD8+ T cell-mediated anti-tumor cytotoxicity were enhanced with combinational therapy, to ascertain if either IFN-α, WP1193 or both were augmenting the expression of MHC or NK activating receptors or their ligands, splenocytes and B16 cells were treated with RPMI 1640 medium (control), WP1193 (2 μM), IFN-α (20 ng/ml), or IFN-α (20 ng/ml)+WP1193 (2 μM) for 24 hours. The NK-activating ligands (Rae-1, H60 and CD155) and MHC (I and II) on B16 cells and the NK-activating receptors (NKG2D, KLRD1, NKp46 and DNAM-1) on NK1.1+ NK cells were analyzed by flow cytometric analysis.
In general terms: In flow cytometry, cells or beads pass a laser one at a time.

The text below walks through data of patent US20130129675A1, “INTERFERON THERAPIES IN COMBINATION WITH BLOCKADE OF STAT3 ACTIVATION” (BOARD OF REGENTS, THE UNIVERSITY OF TEXAS SYSTEM, priority 2009, published 2013).

As to IFN-α, in test [1], the “% of B16 Killimg” value came to 12.5%. The “% of B16 Killimg” value in test [2] turned out to be 14.3%. In test [3], the “IFN-gamma Concentration” value came to 20.2 pg/mL, the “IL-1B Concentration” value stood at 41.3 pg/mL and the “TNF alpha Concentration” value came out at 98.7 pg/mL. Further, the “NKG2D, KLRD1, NKp46 and DNAM-1 on NK cells” value in test [4] is listed as “did not appear to be up-regulated”.
Regarding `N#C/C(=C\c1cccc(Br)n1)C(=O)N[C@H](c1ccccc1)C1CC1` [WP1193, (S,E)-3-(6-bromopyridin-2-yl)-2-cyano-N-(cyclopropyl(phenyl)methyl)acrylamide], in test [1], the “% of B16 Killimg” value turned out to be 10.9%. In addition, the “% of B16 Killimg” value in test [2] amounted to 11.2%. Further, in test [3], the “IFN-gamma Concentration” value is given as “Not detected”, the “IL-1B Concentration” value was found to be 20.0 pg/mL and the “TNF alpha Concentration” value is 60.0 pg/mL. Also, in test [4], the “NKG2D, KLRD1, NKp46 and DNAM-1 on NK cells” value is listed as “did not appear to be up-regulated”.
